The text below walks through data of patent US6156801A, “2-phenoxyaniline derivatives” (Taisho Pharmaceutical Co., Ltd., priority 1997, dated 2000).

For the test, the target named is T1, Na^+ /Ca^2+ exchange system (Canis lupus familiaris, UniProt P23685).
T1 construct: Sarcolemmal vesicles which were prepared from the removed dog ventricular muscles; from tissue; host or cells: dog ventricular muscle, sarcolemmal vesicles
Nature of the test: Inhibitory action on Na+/Ca2+ exchange system using myosarcolemmal vesicles (45Ca uptake). The class given is biochemical. The note with it: sarcolemmal vesicles from dog ventricular muscles; Na+-loaded; 20 μM [45Ca]-calcium chloride, pH 7.4, 10 seconds uptake. The method, then: Inhibitors Action on a Na^+ /Ca^2+ Exchange System using Myosarcolemmal Vesicles Sarcolemmal vesicles which were prepared from the removed dog ventricular muscles by referring to the method described in the literature (L. R. Jones, Methods, Enzymol., 1988, 157, pp. 85) were used. A Na^+ /Ca^2+ exchange activity using the sarcolemmal vesicles was measured by referring to the method described in the literature (K. D. Philipson, et al., J. Biol. Chem., 1980, 255, pp. 6880). First, the sarcolemmal vesicles were suspended in a sodium-containing solution [160 mM sodium chloride, 20 mM […] (pH 7.4)] to make up to a protein concentration of 1.5 mg/ml, and allowed to stand for an hour to load Na^+ in the sarcolemmal vesicles. To 2.5 μl of the sarcolemmal vesicles was added 125 μl of a [^45 Ca]-calcium chloride solution [20 μM [^45 Ca]-calcium chloride, 160 mM potassium chloride and 20 mM Mops-Tris (pH 7.4)], and after 10 seconds, 900 μl of an ice-cooled lanthanum chloride solution [10 mM lanthanum chloride, 160 mM potassium chloride and 20 mM Mops-Tris (pH 7.4)] was added. The sarcolemmal vesicles were recovered on a nitrocellulose filter by suction filtration and washed three times with 900 μl of a lanthanum chloride solution. The concentration of Ca^2+ uptake in the sarcolemmal vesicles was determined by measuring a ^45 Ca radioactivity by a scintillator. In addition, a Na^+ /Ca^2+ exchange activity-independent Ca^2+ uptake in the sarcolemmal vesicles was determined by carrying out the same procedure using a potassium-containing solution [160 mM potassium chloride, 20 mM Tris-hydrochloric acid (pH 7.4)] instead of the sodium-containing solution. The test compound was used as a dimethyl sulfoxide solution thereof, and its inhibitory effect was evaluated in comparison with the vehicle-treatedgroup. The IC50 value was determined from a dose inhibition curve of the test compound by using the minimum square method.

Each structure is given as a SMILES string. Structures can show the parent of a compound that is named as a salt.

The term IC50 denotes the concentration that gives 50% inhibition. Take `COc1ccc(Oc2ccc(OCc3ccccc3)cc2)c(N)c1` [Example 1, 2-[4-(Benzyloxy)phenoxy]-5-methoxyaniline hydrochloride]: the IC50 was determined as 1100 nM.
Turning to `Nc1cccc(N)c1Oc1ccc(OCc2ccccc2)cc1` [Example 14, 2-[4-(Benzyloxy)phenoxy]-1,3-phenylenediamine dihydrochloride], the IC50 was 8200 nM.
To `CCOc1ccc(Oc2ccc(OCc3ccccc3)cc2)c(N)c1` [Example 17, 2-[4-(Benzyloxy)phenoxy-5-ethoxyaniline hydrochloride] belongs 2500 nM; to `NC(=O)COc1ccc(Oc2ccc(OCc3ccccc3)cc2)c(N)c1` [Example 19, 3-Amino-4-[4-(benzyloxy)phenoxy]phenoxy-acetamide hydrochloride], 14000 nM; to `COC(=O)COc1ccc(Oc2ccc(OCc3ccccc3)cc2)c(N)c1` [Example 20, Methyl 3-amino-4-[4-(benzyloxy)-phenoxy]phenoxyacetate hydrochloride], 2800 nM.
